Laboratory results: patent US11214548B2, “Cannabinoid receptor modulators” (priority 2009, dated 2022)

Experiments:
acute and chronic pain = conditions: animal studies; cited from earlier work
EAE = conditions: cited from earlier work
[1] = tested on: allergic contact dermatitis; conditions: mouse, injection; cited from earlier work
atherosclerosis = conditions: cited from earlier work
[2] = tested on: Streptozotocin-Induced Painful Diabetic Peripheral Neuropathy (PDPN) Model; test: Streptozotocin-induced painful diabetic peripheral neuropathy (PDPN) model; assay type: in vivo, male Sprague-Dawley rats; conditions: 10 mg/kg orally in 0.5% methylcellulose; 1, 4 and 6 hours post-dosing, FIG. 17 and FIG. 18
Description: Example 12: Streptozotocin-Induced Painful Diabetic Peripheral Neuropathy (PDPN) Model
Male Sprague-Dawley rats were injected intraperitoneally with 50 mg/kg of streptozotocin (STZ) in sodium citrate buffer. 10% sucrose water was provided ad libitum for the first 48 hours post-STZ followed by regular drinking water. Rats were monitored once weekly for blood glucose levels and body weights. Development of tactile allodynia over time was analyzed using Von Frey filaments and a 50% withdrawal threshold was determined using Dixon's up-down procedure. […] Tactile allodynia was evaluated at 1, 4 and 6 hours post-dosing.

[3] = tested on: hypersensitivity following ligation of spinal nerves; conditions: rats, cited from earlier work
EAU = EAU model in mice; cited from earlier work
[4] = tested on: bovine nasal cartilage explants; conditions: bovine nasal cartilage explants in vitro; cited from earlier work
capsaicin-induced coughs = conditions: mice; cited from earlier work
vagus nerve preparations = conditions: guinea pig and human vagus nerve preparations in vitro; cited from earlier work
cough = conditions: conscious guinea-pigs, administration prior to citric acid; cited from earlier work
[5] = tested on: bone marrow-derived osteoblasts/stromal cells; conditions: in vitro; cited from earlier work
[6] = tested on: ovariectomy-induced bone loss; conditions: in vivo; cited from earlier work
CB1 = conditions: exogenous administration; cited from earlier work
[7] = tested on: capsaicin-induced hyperalgesia and allodynia; conditions: humans, topical administration; cited from earlier work
[8] = tested on: histamine-induced responses; conditions: human skin, topical administration; cited from earlier work
hyperalgesia = conditions: rodents, systemic delivery; cited from earlier work
[9] = tested on: MIA model of osteoarthritis; test: MIA model of osteoarthritis pain (von Frey, weight distribution, grip strength); assay type: in vivo, male Sprague Dawley rats; conditions: 3, 10 and 30 mg/kg orally, one hour after dosing, FIG. 2
Description: Example 5: Effect of Compounds on Osteoarthritis Pain
Injection of monosodium iodoacetate (MIA) into a joint (Kalbhen, 1987) inhibits the activity of glyceraldehyde-3-phosphate dehydrogenase in chondrocytes, resulting in disruption of glycolysis and eventually in cell death. The progressive loss of chondrocytes results in histological and morphological changes of the articular cartilage, closely resembling those seen in osteoarthritis patients.
The osteoarthritis was induced in 200 g male Sprague Dawley rats. […]
Typically during disease progression, there was an inflammation period of 0-7 days post-intra-articular injection followed by progressive degeneration of the cartilage and subchondral bone from days 14-55. […] Tactile allodynia was measured via von Frey assay, hind limb paw weight distribution was monitored using an incapacitence tester (Columbus Instruments, Columbus, Ohio, USA) and hind limb grip strength was measured using a grip strength meter (Columbus Instruments, Columbus, Ohio, USA). […] Hind paw weight distribution was determined by placing rats in a chamber so that each hind paw rests on a separate force plate of the incapacitence tester. The force exerted by each hind limb (measured in grams) is averaged over a 3 second period. Three measurements were taken for each rat, and the change in hind paw weight distribution calculated. […]

[10] = tested on: FCA-induced hyperalgesia model of inflammatory pain; test: FCA-induced hyperalgesia in rats; assay type: in vivo, male Sprague Dawley rats; conditions: 0.1, 1, 3, 10 and 30 mg/kg orally, 1 h post dosing, FIG. 1
Description: Example 7: Effect of Compounds on FCA-Induced Hyperalgesia in Rats
Male Sprague Dawley rats from Harlan (200-225 g when received) were used. Upon arrival, rats were housed 4 per cage in shoe-box polycarbonate cages with wire tops, wood chip bedding and suspended food and water bottles. Animals were acclimated for 5-7 days prior to being injected with Freund's complete adjuvant (FCA) (Sigma; catalog #5881).
2 days (48 h) before testing compounds, baseline readings of all rats were taken right before FCA injection. Rats were then injected with 50 μL FCA containing 1 mg/mL Mtb (Mycobacterium tuberculosis) in right hind footpad under inhalation anesthesia (isoflurane). 48 hours after FCA injection, readings were taken as pre-dosing baseline and then rats were dosed orally with 0.5 mL of vehicle or compound (0.5 mL per 250 g rat). Readings were taken again at 1 h post dosing. All readings were taken with an Analgesy-Meter (Ugo Basile) which measures mechanical hyperalgesia via paw pressure.
FCA-induced hyperalgesia was tested with an Analgesy-Meter. Briefly, the Analgesy Meter applied an increasing pressure to the right hind paw. The paw withdrawal threshold was the pressure leading to withdrawal.
Meanwhile a group of rats were dosed orally with 50 mg/kg of Diclofenac as a positive control. Readings were taken again at 1 h post dosing. Dosing volume was 500 μL per 250 g rat.

[11] = tested on: paclitaxel model of cancer pain; test: Paclitaxel-induced allodynia in Sprague Dawley rats; assay type: in vivo, male Sprague Dawley rats; conditions: 10 mg/kg orally
Description: Example 8: Paclitaxel-Induced Allodynia in Sprague Dawley Rats
Male Sprague Dawley rats [200-250 g] (Harlan Laboratories Inc., Livermore, Calif.) were housed three per cage and maintained in a humidity-controlled (40-60%) and temperature-controlled (68-72° F.) facility on a 12 h:12 h light/dark cycle (lights on at 6:30 am) with free access to food (Harlan Teklad, Orange, Calif., Rodent Diet 8604) and water. Rats were allowed one week of habituation to the animal facility before starting treatment.
Rats were treated intraperitoneally, with 2 mg/kg of paclitaxel (Sigma Aldrich, Saint Louis, Mo.) in 10% Cremophor vehicle (500 μL) on days 0, 2, 4, and 6.
Tactile allodynia was tested using von Frey filaments. Briefly, the von Frey assay was performed using the standardized up down method with von Frey filaments, that determine the tactile sensitivity of the paw. By applying the increasingly or decreasingly thicker filaments to the paw in a logarithmic scale of actual force, a linear scale of perceived intensity is determined.
Eight days after the start of paclitaxel dosing, a baseline measurement (von Frey assay) was performed prior to dosing of compounds. […] As a positive control, rats were dosed intraperitoneally with 100 mg/kg gabapentin in water. The dosing volume for oral and peritoneal treatment was 500 μL. […]

RPE cells = conditions: cited from earlier work

Molecule: CCCCCc1cc(O)c2c(c1)OC(C)(C)[C@@H]1CCC(C)=C[C@@H]21 [THC]
- effect against acute and chronic pain from chemical, mechanical, and thermal pain stimuli (acute and chronic pain): effective
- severity of clinical disease (EAE; EAE mouse model): significantly inhibits
- cutaneous inflammation and the pruritis (itch) associated with it [1]: reduces
- progression of atherosclerosis (atherosclerosis; ApoE knockout mice): reduces

Molecule: CC(C)(NC(=O)c1nn(-c2c[n+]([O-])ccn2)c2c1C[C@@H]1C[C@H]21)C(F)(F)F [Compound 919, (1aS,5aS)-2-(4-Oxy-pyrazin-2-yl)-1a,2,5,5a-tetrahydro-1H-2,3-diaza-cyclopropa[a]pentalene-4-carboxylic acid (2,2,2-trifluoro-1,1-dimethyl-ethyl)-amide]
- analgesic efficacy (tactile allodynia, 50% withdrawal threshold) [2]: robust and sustained analgesic efficacy over 6 hours

Molecule: COc1ccc2c(c1)c(CCN1CCOCC1)c(C)n2C(=O)c1cccc(Cl)c1Cl [GW405833]
- hypersensitivity to mechanical stimuli ([3]; administered systemically): significantly reverses

Molecule: Cc1c(C(=O)c2cccc3ccccc23)c2cccc3c2n1[C@H](CN1CCOCC1)CO3 [WIN 55212-2]
- effect against acute and chronic pain from chemical, mechanical, and thermal pain stimuli (acute and chronic pain): effective
- leukocyte rolling and adhesion in the brain (EAE; EAE mouse model): significantly inhibits
- neuroprotection (EAU): significant neuroprotection
- IL-1alpha-stimulated proteoglycan and collagen degradation [4]: significantly inhibit
- number of capsaicin-induced coughs (capsaicin-induced coughs): dose-dependent inhibition

Molecule: COc1ccc(C(=O)c2c(C)n(CCN3CCOCC3)c3cc(I)ccc23)cc1 [AM630]
- inhibition of the AM1241 effect on tactile and thermal hypersensitivity [3]: inhibited

Molecule: SR144528
- blockade of the WIN 55212-2 effect on leukocyte rolling and adhesion (EAE; EAE mouse model): blocked
- cutaneous inflammation and the pruritis (itch) associated with it [1]: exacerbates
- blockade of the THC effect on atherosclerosis (atherosclerosis; in vitro and in vivo): completely blocks

Molecule: CCCC(C)(C)c1ccc2c(c1)OC(C)(C)[C@@H]1CC=C(C)C[C@@H]21 [JWH133]
- capsaicin-, PGE2- and hypertonic saline-induced depolarization (vagus nerve preparations): reduces
- cough (cough): significantly reduces

Molecule: CCCCCCC(C)(C)c1cc(OC)c([C@@H]2C=C(CO)[C@@H]3C[C@H]2C3(C)C)c(OC)c1 [HU-308]
- recruitment of immature myeloid cells and T cells, microglial and infiltrating myeloid cell proliferation, and axonal loss (EAE; EAE model): markedly reduces
- endocortical osteoblast numbers and activity [5]: enhances
- proliferation of osteoclast precursors [5]: inhibiting
- ovariectomy-induced bone loss [6]: attenuates

Molecule: CCCCC/C=C\C/C=C\C/C=C\C/C=C\CCCC(=O)NCCCl [arachidonyl-2-chloroethylamide]
- pain (CB1): reduces

Molecule: CCCCCCC(C)(C)c1cc(O)c2c(c1)OC(C)(C)[C@@H]1CC=C(CO)C[C@@H]21 [HU-210]
- capsaicin-induced hyperalgesia and allodynia [7]: attenuates
- IL-1alpha-stimulated proteoglycan and collagen degradation [4]: significantly inhibit
- histamine-induced responses [8]: reduces

Molecule: Cc1c(C(=O)NN2CCCCC2)nn(-c2ccc(Cl)cc2Cl)c1-c1ccc(Cl)cc1 [Compound S141716A, S141716A]
- cutaneous inflammation and the pruritis (itch) associated with it [1]: exacerbates

Molecule: CN1CCCCC1Cn1cc(C(=O)c2cc([N+](=O)[O-])ccc2I)c2ccccc21 (stereo not shown) [AM1241]
- hyperalgesia induced in the carrageenan, capsaicin, and formalin models (hyperalgesia): suppresses
- tactile and thermal hypersensitivity ([3]; local (subcutaneous) or systemic administration, chronic constriction injury model): reverses

Molecule: CC(C)(C)[C@@H](CO)NC(=O)c1nn(-c2c[n+]([O-])ccn2)c2c1C[C@@H]1C[C@H]21 [Compound 699, (1aS,5aS)-2-(4-Oxy-pyrazin-2-yl)-1a,2,5,5a-tetrahydro-1H-2,3-diaza-cyclopropa[a]pentalene-4-carboxylic Acid ((S)-1-Hydroxymethyl-2,2-dimethyl-propyl)-amide]
- analgesic efficacy (tactile allodynia, 50% withdrawal threshold) [2]: robust and sustained analgesic efficacy over 6 hours

Molecule: CC(C)(CO)NC(=O)c1nn(-c2ccc(F)cc2F)c2c1C[C@H]1C[C@@H]21 [Compound 493, (1aR,5aR)-2-(2,4-Difluoro-phenyl)-1a,2,5,5a-tetrahydro-1H-2,3-diaza-cyclopropa[a]pentalene-4-carboxylic Acid (2-Hydroxy-1,1-dimethyl-ethyl)-amide]
- paw withdrawal threshold (PWT) in comparison with vehicle [9]: Increase in paw withdrawal threshold (PWT)
- paw withdrawal threshold (PWT) in comparison with the vehicle [10]: increase in paw withdrawal threshold (PWT)
- time of maximum efficacy post-dosing ([11]; von Frey time course): 1 h
- paw withdrawal threshold (PWT) in comparison with vehicle and gabapentin ([11]; 30, 60 and 180 minutes after dosing, FIG. 3): increase in paw withdrawal threshold (PWT)

Molecule: CCCn1c(C)c(C(=O)c2cccc3ccccc23)c2ccccc21 [JWH015]
- protection of RPE cells from oxidative damage (RPE cells): comparable protection

Molecule: CCCCCCC(C)(C)c1ccc([C@@H]2C[C@H](O)CC[C@H]2CCCO)c(O)c1 [CP55,940]
- effect against acute and chronic pain from chemical, mechanical, and thermal pain stimuli (acute and chronic pain): effective
- protection of RPE cells from oxidative damage (RPE cells): significantly protects
- capsaicin-, PGE2- and hypertonic saline-induced depolarization (vagus nerve preparations): reduces
